Patent publication US6518303B2, “2-phenylpyran-4-one derivatives” (Almirall Prodesfarma S.A., priority 1999, dated 2003)

Experiments:
[1] = tested on: intestinal ulcers and hematocrit in male Wistar rats; assay: Ulcerogenic activity; assay type: in vivo, rat; set-up: key to Lesion index PU (perforated ulcers) / Lesion index NPU (non-perforated ulcers): 0:no ulcers; 1:<10 ulcers; 2:10-25 ulcers; 3:>25 ulcers; settings: for Lesion index NPU (non-perforated ulcers) / Lesion index PU (perforated ulcers): index 0 to 3
Experimental: Animals: Male Wistar rate (Interfauna, U.K., Ltd.) weighing about 150-175 g were used. Animals were maintained on a 12:12 hour light-dark cycle (lights on at 7:00 am) at room temperature (22±1° C.). Food and water were allowed ad libitum.
Procedure: The compounds were administered by the oral route once a day for 4 consecutive days. The body weight of each rat was assessed every day before drug administration. The animals were anesthesized 24 h after the last dosing and 1 ml of blood was extracted by cardiac puncture using heparin (10 U/ml) as anticoagulant. The percentage of hematocrit was measured. The intestines were removed, opened longitudinally and gently washed. The macroscopic severity of the intestinal erosions was assessed using a parametric scale, evaluating the number of the perforated and non-perforated intestinal ulcers by means of a lesion index ranging from 0 to 3 (0:no ulcers, 1:<10 ulcers, 2:10-25 ulcers to 3:>25 ulcers). No gastric ulcers are observed using this protocol.
The treatments were randomized in each experiment. The results were compared with those obtained in the vehicle-treated group using the ANOVA test.

[2] = tested on: adjuvant arthritis (hind paw volume) in male Wistar rats; assay: Anti-inflammatory activity (adjuvant arthritis); assay type: in vivo, rat; settings: dose 1 mg/kg p.o. once daily for 7 days (days 14-20), measured day 21
COX-2 = molecular target: T1, COX-2 (Homo sapiens, UniProt P35354); assay: COX-2 activity in human whole blood (PGE2, LPS-induced); assay type: cell-based; settings: for IC50: human whole blood, LPS 10 μg/ml 24 h at 37° C., PGE2 ELISA; for Ratio COX-1/COX-2: ratio of whole blood IC50 values
T1 construct: incubated in the presence of LPS (10 μg/ml) for 24 h at 37° C. in order to induce The COX-2 expression; endogenous in cells; host or cells: fresh heparinized human whole blood, COX-2 induced with LPS for 24 h
T1 sequence (P35354 18-604): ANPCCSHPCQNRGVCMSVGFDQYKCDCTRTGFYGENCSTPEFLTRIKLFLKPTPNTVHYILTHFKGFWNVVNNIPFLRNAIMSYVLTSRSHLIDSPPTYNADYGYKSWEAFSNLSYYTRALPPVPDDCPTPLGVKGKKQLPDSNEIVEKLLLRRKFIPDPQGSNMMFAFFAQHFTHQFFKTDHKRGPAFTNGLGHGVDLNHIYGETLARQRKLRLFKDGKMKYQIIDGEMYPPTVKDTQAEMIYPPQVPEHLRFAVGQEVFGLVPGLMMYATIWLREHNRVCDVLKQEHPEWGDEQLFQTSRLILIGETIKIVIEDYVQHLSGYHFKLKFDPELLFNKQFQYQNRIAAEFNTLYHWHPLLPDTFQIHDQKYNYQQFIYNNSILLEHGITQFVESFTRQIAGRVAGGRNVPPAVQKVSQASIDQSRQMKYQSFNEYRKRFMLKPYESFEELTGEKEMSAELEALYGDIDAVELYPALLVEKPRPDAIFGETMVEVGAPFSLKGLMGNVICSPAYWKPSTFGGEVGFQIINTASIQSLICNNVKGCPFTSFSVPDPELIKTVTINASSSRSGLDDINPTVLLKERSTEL
Experimental: Plasma was separated by centrifugation (10 min at 13000 rpm.) and kept at −30° C. until PGE2 levels were measured using an enzyme immunoassay kit (ELISA). The effects of inhibitors were studied by incubating each compound (5 μl aliquots) at five to six different concentrations with triplicate determinations in the presence of LPS for 24 hours. IC50 values were obtained by non-linear regression using InPlot, GraphPad software on an IBM computer.

COX-1 = molecular target: T2, COX-1 (Homo sapiens, UniProt P23219); assay: COX-1 activity in human whole blood (TXB2, calcium ionophore A23187); assay type: cell-based; settings: 1 h at 37° C., TXB2 ELISA
T2 construct: Fresh blood from healthy volunteers; endogenous in cells; host or cells: fresh heparinized human whole blood stimulated with calcium ionophore A23187
T2 sequence (P23219 24-599): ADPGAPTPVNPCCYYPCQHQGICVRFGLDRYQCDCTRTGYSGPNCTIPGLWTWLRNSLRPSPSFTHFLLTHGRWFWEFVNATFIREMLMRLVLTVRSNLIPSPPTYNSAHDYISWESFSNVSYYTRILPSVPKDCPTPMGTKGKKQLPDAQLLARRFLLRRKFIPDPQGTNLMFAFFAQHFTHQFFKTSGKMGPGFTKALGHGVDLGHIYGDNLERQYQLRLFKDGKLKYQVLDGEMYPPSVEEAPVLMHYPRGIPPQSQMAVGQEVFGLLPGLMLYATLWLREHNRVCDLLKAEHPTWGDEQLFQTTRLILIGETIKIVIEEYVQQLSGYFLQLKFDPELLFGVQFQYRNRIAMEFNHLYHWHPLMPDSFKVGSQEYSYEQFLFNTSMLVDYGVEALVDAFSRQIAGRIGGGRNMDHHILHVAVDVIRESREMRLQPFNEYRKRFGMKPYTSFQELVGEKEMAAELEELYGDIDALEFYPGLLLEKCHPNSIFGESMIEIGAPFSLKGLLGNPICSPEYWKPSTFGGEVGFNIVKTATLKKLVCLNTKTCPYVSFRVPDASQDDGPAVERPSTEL
Experimental: For the COX-1 activity determination, 500 μl aliquots of blood were incubated with either 5 μl vehicle (dimethylsulphoxide) or 5 μl of a test compound for 1 h at 37° C. […] Plasma was separated by centrifugation (10 min at 13000 rpm) and kept at −30° C. until TXB2 levels were measured using an enzyme immunoassay kit (ELISA). The effect of the compounds were evaluated by incubating each compound at five to six different concentrations with triplicate determinations. IC50 values were obtained by non-linear regression using InPlot, GraphPad software on an IBM computer.

[3] = dose 100 mg/kg oral once a day for 4 days
[4] = dose 10 mg/kg oral once a day for 4 days

melting point [°C] | IC50 (COX-2) [nM] | Ratio COX-1/COX-2 (COX-2) | IC50 (COX-1) [nM] | SMILES | Hematocrit [1, 3] [%] | Lesion index NPU (non-perforated ulcers) [1, 3] | Lesion index PU (perforated ulcers) [1, 3] | % Inhibition of inflammation (paw volume) [2] | Hematocrit [1, 4] [%] | Lesion index NPU (non-perforated ulcers) [1, 4] | Lesion index PU (perforated ulcers) [1, 4]
191 | 150 | 147 | 22000 | Cc1cc(=O)c(Oc2ccc(F)cc2F)c(-c2ccc(S(C)(=O)=O)cc2)o1 [Compound 45, 3-(2,4-difluorophenoxy)-2-(4-methanesulfonylphenyl)-6-methylpyran-4-one] | 44.4 ± 0.9 | 0 | 0 | 74 (1) % | – | – | –
– | – | – | – | COc1ccc2c(c1)c(CC(=O)O)c(C)n2C(=O)c1ccc(Cl)cc1 [Indomethacin, 1-(4-chlorobenzoyl)-5-methoxy-2-methylindole-3-acetic acid, reference compound] | – | – | – | 64 (1) % | 22.7 ± 1.6 | 3 (3:>25 ulcers) | 3 (3:>25 ulcers)
156 | – | – | 37100 | Cc1cc(=O)c(-c2ccc(Cl)c(Cl)c2)c(-c2ccc(S(C)(=O)=O)cc2)o1 [Compound 22, 3-(3,4-dichlorophenyl)-2-(4-methanesulfonylphenyl)-6-methylpyran-4-one] | 44.4 ± 0.3 | – | – | 69 (1) % | – | – | –
182 | 2100 | >47 | > 100000 | Cc1cc(=O)c(-c2ccc(Cl)cc2)c(-c2ccc(S(C)(=O)=O)cc2)o1 [Compound 5, 3-(4-chlorophenyl)-2-(4-methanesulfonylphenyl)-6-methylpyran-4-one] | 44.1 ± 0.7 | 0 | 0 | 50 (1) % | – | – | –
136 to 137 | 1500 | >66 | > 100000 | Cc1cc(=O)c(-c2ccccc2F)c(-c2ccc(S(C)(=O)=O)cc2)o1 [Compound 4, 3-(2-fluorophenyl)-2-(4-methanesulfonylphenyl)-6-methylpyran-4-one] | – | – | – | – | – | – | –
237 | 1060 | >94 | > 100000 | Cc1cc(=O)c(-c2ccc(F)cc2)c(-c2ccc(S(C)(=O)=O)cc2)o1 [Compound 2, 3-(4-fluorophenyl)-2-(4-methanesulfonylphenyl)-6-methylpyran-4-one] | – | – | – | – | – | – | –
116 | 1670 | >59 | > 100000 | COc1ccc(-c2c(-c3ccc(S(C)(=O)=O)cc3)oc(C)cc2=O)cc1Cl [Compound 31] | – | – | – | – | – | – | –
168 to 170 | 2100 | >47 | > 100000 | CS(=O)(=O)c1ccc(-c2oc(C(F)F)cc(=O)c2-c2ccc(Cl)cc2)cc1 [Compound 67, 3-(4-chlorophenyl)-6-difluoromethyl-2-(4-methanesulfonylphenyl)pyran-4-one] | – | – | – | – | – | – | –
189 | 960 | >104 | > 100000 | Cc1cc(=O)c(Oc2ccc(F)cc2)c(-c2ccc(S(C)(=O)=O)cc2)o1 [Compound 39, 3-(4-fluorophenoxy)-2-(4-methanesulfonylphenyl)-6-methylpyran-4-one] | 43.7 ± 0.4 | 0 | 0 | 75 (1) % | – | – | –
188 | 800 | 125 | > 100000 | Cc1cc(=O)c(Oc2ccc(Br)cc2)c(-c2ccc(S(C)(=O)=O)cc2)o1 [Compound 43, 3-(4-bromophenoxy)-2-(4-methanesulfonylphenyl)-6-methylpyran-4-one] | – | – | – | – | – | – | –
– | 350 | >285 | > 100000 | Cc1cc(=O)c(Oc2ccc(Cl)cc2)c(-c2ccc(S(C)(=O)=O)cc2)o1 [Compound 41] | 43.4 ± 1.9 | 0 | 0 | 71 (1) % | – | – | –
